Measured values taken from ChEMBL document CHEMBL5346971, “Discovery of the First Irreversible HDAC6 Isoform Selective Inhibitor with Potent Anti-Multiple Myeloma Activity” (J Med Chem, 2023).
Calls of active or inactive are those of the source. The calls are words filed in the database; no cut-off is given here.

Assays:
RPMI-8226 = experiment: Induction of cell cycle arrest in human RPMI-8226 cells assessed as proportion of cells at G2/M phase at 0.1 uM incubated for 24 hrs by PI staining based flow cytometry (reference value: 19.8%); assay type: functional
[1] = Intrinsic clearance in human liver microsomes in presence of NADPH by LC-MS/MS analysis; assay type: ADME, Microsome; conditions: read-out: CLH
[2] = Toxicity in NCG mouse xenografted with human RPMI-8226 cells assessed as body weight loss at 10 ug administered intratumorally every 2 days; conditions: in vivo, other, 48 h, route it(Intratumoral), dose 10 µg
[3] = Intrinsic clearance in rat liver microsomes in presence of NADPH by LC-MS/MS analysis; assay type: ADME, Microsome; conditions: read-out: CLH
[4] = target: T1, Protein deacetylase HDAC6 (Homo sapiens) (UniProt Q9UBN7); conditions: A549, dose 80.0 nM, time 5.0 hrs
T1 sequence (whole entry): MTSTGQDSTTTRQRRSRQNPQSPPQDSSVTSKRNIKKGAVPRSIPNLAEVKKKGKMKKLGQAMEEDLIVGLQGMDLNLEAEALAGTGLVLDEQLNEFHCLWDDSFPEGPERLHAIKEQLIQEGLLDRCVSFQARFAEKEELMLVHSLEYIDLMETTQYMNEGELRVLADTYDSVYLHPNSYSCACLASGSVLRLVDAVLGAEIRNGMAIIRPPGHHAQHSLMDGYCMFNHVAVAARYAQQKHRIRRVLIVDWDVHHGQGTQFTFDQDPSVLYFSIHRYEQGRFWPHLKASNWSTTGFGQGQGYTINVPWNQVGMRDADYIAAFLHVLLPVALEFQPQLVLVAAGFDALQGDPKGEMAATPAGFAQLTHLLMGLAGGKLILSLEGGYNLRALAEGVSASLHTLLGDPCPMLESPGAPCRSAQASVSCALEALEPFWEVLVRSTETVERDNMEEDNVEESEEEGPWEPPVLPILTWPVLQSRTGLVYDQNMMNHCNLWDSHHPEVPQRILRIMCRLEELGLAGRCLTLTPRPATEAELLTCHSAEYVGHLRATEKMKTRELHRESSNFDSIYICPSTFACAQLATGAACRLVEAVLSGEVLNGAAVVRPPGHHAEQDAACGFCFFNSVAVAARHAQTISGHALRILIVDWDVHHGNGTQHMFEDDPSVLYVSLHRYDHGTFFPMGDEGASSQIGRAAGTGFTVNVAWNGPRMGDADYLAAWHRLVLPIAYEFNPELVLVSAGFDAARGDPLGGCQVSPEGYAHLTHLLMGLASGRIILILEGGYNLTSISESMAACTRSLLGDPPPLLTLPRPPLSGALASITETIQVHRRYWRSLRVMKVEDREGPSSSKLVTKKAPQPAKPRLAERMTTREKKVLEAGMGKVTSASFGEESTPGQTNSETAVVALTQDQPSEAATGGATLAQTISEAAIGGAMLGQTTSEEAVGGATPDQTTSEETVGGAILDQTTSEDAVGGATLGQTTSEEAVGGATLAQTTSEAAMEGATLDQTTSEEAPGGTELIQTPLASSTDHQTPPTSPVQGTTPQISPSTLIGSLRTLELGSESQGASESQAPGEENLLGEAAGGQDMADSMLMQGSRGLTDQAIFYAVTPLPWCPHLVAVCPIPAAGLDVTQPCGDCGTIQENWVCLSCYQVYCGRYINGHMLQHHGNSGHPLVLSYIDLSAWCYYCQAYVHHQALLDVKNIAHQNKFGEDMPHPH

[5] = Effect on HDAC6 protein expression in human A549 cells assessed as change in HDAC6 protein expression at 0.4 uM incubated for 5 hrs followed by drug wash-out for 1 hr by western blot analysis relative to control; assay type: functional
Homo sapiens = species: Homo sapiens; experiment: Selectivity index, ratio of IC50 for inhibition of C-terminal FLAG-tagged human full length recombinant HDAC2 (1 to 488 residues) expressed in Sf9 cells to IC50 for inhibition of N-terminal GST-tagged human full length recombinant HDAC6 (1 to 1215 residues) expressed in Sf9 cells
Histone deacetylase 7 = target: T2, Histone deacetylase 7 (Homo sapiens, UniProt Q8WUI4); experiment: Inhibition of N-terminal GST-tagged human HDAC7 (518 to end residues) expressed in baculovirus-infected Sf9 cells using Boc-Lys(trifluoroacety1)-AMC as substrate preincubated with enzyme for 1 hr followed by substrate addition and measured after 30 mins by fluorescence based analysis
T2 sequence (Q8WUI4 whole entry): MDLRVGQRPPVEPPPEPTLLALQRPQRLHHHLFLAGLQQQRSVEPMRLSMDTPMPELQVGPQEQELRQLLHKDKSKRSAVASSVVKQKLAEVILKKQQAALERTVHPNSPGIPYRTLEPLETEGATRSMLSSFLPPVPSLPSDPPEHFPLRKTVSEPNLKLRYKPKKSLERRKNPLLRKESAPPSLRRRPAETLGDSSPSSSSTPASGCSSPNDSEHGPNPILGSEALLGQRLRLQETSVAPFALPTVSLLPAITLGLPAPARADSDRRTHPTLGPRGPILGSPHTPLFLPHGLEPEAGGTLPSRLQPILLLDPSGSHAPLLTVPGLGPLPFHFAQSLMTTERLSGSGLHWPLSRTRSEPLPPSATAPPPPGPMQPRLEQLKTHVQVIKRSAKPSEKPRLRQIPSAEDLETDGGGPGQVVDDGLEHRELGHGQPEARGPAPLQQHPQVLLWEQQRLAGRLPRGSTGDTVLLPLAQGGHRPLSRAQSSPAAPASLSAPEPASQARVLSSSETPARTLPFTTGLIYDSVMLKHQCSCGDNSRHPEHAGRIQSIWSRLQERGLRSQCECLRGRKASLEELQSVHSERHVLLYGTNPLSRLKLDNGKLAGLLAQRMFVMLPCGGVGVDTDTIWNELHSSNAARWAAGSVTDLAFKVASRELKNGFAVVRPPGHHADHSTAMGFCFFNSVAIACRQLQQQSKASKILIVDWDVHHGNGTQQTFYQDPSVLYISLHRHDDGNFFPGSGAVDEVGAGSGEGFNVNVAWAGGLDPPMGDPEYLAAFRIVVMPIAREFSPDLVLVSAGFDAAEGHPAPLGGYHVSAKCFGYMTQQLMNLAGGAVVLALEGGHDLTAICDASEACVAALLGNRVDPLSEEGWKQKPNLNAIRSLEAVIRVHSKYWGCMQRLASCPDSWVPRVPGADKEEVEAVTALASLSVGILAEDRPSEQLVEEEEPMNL

[6] = target: Class 1 histone deacetylase (Homo sapiens) (UniProt Q13547+O15379+Q92769+Q9BY41); experiment: Irreversible inhibition of class 1 HDAC in human A549 cells assessed as acetyl histone H3 level at 0.4 uM incubated for 5 hrs followed by drug wash-out for 6 hrs by western blot analysis relative to control; assay type: cell-based
Sequence of Class 1 histone deacetylase (Homo sapiens) (O15379 whole entry, looked up): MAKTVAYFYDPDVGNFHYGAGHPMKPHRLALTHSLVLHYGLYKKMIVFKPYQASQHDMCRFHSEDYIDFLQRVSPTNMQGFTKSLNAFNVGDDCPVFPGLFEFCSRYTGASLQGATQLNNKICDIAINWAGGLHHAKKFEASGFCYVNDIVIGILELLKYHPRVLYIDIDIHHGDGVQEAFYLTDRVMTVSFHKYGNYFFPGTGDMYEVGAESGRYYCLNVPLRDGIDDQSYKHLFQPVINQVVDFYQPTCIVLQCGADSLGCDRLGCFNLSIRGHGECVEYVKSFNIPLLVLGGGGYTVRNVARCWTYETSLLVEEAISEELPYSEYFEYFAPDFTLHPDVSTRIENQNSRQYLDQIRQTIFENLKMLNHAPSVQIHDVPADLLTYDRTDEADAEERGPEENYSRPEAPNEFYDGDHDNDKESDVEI
Sequence of Class 1 histone deacetylase (Homo sapiens) (Q13547 whole entry, looked up): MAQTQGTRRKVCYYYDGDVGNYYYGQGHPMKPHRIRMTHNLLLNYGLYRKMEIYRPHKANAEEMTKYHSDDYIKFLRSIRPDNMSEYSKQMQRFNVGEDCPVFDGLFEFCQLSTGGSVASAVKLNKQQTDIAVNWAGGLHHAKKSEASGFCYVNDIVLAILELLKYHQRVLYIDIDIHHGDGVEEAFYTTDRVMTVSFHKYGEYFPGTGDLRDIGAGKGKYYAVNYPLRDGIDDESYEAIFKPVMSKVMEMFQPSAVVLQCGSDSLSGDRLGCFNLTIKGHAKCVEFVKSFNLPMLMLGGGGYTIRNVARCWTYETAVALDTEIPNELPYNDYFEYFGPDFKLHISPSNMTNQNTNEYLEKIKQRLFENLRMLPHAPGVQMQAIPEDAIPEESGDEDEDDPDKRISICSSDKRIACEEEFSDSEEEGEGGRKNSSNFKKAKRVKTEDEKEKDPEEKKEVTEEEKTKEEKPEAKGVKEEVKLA
Sequence of Class 1 histone deacetylase (Homo sapiens) (Q92769 whole entry, looked up): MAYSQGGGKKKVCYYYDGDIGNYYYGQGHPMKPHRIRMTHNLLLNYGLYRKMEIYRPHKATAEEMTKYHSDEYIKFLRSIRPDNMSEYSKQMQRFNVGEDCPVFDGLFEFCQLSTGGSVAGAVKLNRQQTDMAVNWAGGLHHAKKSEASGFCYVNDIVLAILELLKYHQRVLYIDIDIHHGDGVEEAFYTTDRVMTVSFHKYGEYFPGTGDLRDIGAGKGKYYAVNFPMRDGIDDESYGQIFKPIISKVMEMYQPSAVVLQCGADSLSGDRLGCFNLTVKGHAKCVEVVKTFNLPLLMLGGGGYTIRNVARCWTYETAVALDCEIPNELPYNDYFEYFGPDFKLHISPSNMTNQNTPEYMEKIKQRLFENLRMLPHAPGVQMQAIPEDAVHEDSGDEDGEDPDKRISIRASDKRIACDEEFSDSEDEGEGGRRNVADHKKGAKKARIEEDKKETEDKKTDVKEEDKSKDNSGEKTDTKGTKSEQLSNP
Sequence of Class 1 histone deacetylase (Homo sapiens) (Q9BY41 whole entry, looked up): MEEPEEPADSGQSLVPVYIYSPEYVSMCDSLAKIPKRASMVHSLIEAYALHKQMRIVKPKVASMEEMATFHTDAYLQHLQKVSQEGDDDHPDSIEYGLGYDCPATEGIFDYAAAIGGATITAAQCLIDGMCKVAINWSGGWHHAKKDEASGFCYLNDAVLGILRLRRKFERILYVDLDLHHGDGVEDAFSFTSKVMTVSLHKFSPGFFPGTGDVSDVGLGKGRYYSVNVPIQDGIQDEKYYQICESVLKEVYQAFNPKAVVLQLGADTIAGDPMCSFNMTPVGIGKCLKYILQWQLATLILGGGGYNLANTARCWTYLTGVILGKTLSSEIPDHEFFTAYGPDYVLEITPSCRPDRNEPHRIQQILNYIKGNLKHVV

- CLint scaled [1]: 230 mL/min/kg
- CLint scaled [3]: 270 mL/min/kg
- inhibition [4]: Active
- IC50 (Histone deacetylase 7): > 40 µM
- fold change (FC) [6]: 1.1
SMILES: O=C(NO)c1ccc(COc2no[n+]([O-])c2S(=O)(=O)c2ccccc2)cc1
- Activity (RPMI-8226): 21.4%
- Activity [2]: Non-Toxic
- fold change (FC) [5]: 1.2
- Ratio IC50 (Homo sapiens): 45.5
